# Results from patent publication US20110165611A1, “DUAL MODALITY DETECTION OF APOPTOSIS” (priority 2008, published 2011).
# “Also recorded” adds a separate entry of the source.
# B1: TRAIL: tumor necrosis factor-related apoptosis-inducing ligand, recombinant human (protein, UniProt P50591 1-281, looked up)
# Tumor necrosis factor ligand …: MAMMEVQGGPSLGQTCVLIVIFTVLLQSLCVAVTYVYFTNELKQMQDKYSKSGIACFLKEDDSYWDPNDEESMNSPCWQVKWQLRQLVRKMILRTSEETISTVQEKQQNISPLVRERGPQRVAAHITGTRGRSNTLSSPNSKNEKALGRKINSWESSRSGHSFLSNLHLRNGELVIHEKGFYYIYSQTYFRFQEEIKENTKNDKQMVQYIYKYTSYPDPILLMKSARNSCWSKDAEYGLYSIYQGGIFELKENDRIFVSVTNEHLIDMDHEASFFGAFLVG
# Legend:
# Human caspase 3 = target: T1, Human caspase 3 (Homo sapiens, UniProt P42574); test: Cleavage by caspase 3 (fluorescence emission and LC-MS); type: biochemical
# T1 construct: purchased Sigma-Aldrich
# T1 sequence (P42574 29-175 limits assumed): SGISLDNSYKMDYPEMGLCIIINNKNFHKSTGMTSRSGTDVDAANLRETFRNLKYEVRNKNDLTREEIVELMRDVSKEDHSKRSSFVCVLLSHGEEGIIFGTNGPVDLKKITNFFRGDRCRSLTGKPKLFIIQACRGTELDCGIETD
# T1 sequence (P42574 176-277 limits assumed): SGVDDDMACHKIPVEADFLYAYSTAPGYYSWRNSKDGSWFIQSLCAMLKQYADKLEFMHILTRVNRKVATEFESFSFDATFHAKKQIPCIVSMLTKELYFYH
# Experimental: Cleavage by caspase 3 Human caspase 3 (Sigma-Aldrich) (5 μg) was reconstituted with 50 μL of deionized water (100 μg/mL) and stored in aliquots at −70° C. Before its use, an aliquot of reconstituted caspase 3 was thawed and diluted 200-fold in 1× assay buffer to a final concentration of 0.5 μg/mL. Five microliters of diluted caspase 3 was then added into a solution of 2 (22 μM) in 3 mL 1× assay buffer (20 mM HEPES [pH 7.4], with 2 mM ethylenediaminetetraacetic acid, 0.1% 3-[(3-cholamidopropyl)dimethylammonio]-1-propanesulfonate, and 5 mM dithiothreitol). The reaction mixture was incubated in cuvet in dark at room temperature and the emission spectra were recorded at intervals of 0, 10, 20, 30 and 60 min on a Fluorolog 3 fluorometer (HORIBA, Edison, N.J.) with an excitation wavelength (λex) of 496 nm.
# To further confirm cleavage of 2 by caspase 3, 5 μL of caspase 3 (0.5 μg/mL) was mixed with 10 μL of 1 mM solution of 2 dissolved in 1× assay buffer. After 1 h at room temperature, the reaction mixture was injected into LC-MS system.
# [1] = Stability of DEVD profluorophore 2 in PBS and serum-containing culture medium; type: physicochemical; details: 10 μM in PBS, 1 μM in medium, room temperature, 8 h
# Experimental: Stability of DEVD profluorophore 2 in PBS and serum-containing culture medium For the stability assay, the generation of fluorescence was recorded continuously at room temperature for 8 h for a solution of 2 (10 μM) or fluorescein diacetate (10 μM) in 3 mL of PBS using a Fluorolog-3 fluorometer (Jobin Yvon, Edison, N.J.) at λex=496 nm. The procedure was repeated for a solution of 2 (1 μM) or fluorescein diacetate (1 μM) in Dulbecco's modified Eagle medium supplemented with 10% (v/v) fetal bovine serum. Cleavage of amide bond linking R110 to DEVD or hydrolysis of fluorescein diacetate would result in increased fluorescence signal.
# DLD1 cells [2] = test: Cellular uptake and efflux of DEVD peptides 2 and 3, fluorescence analysis; type: cell-based, human
# Experimental: Cellular uptake and efflux of DEVD peptides 2 and 3—fluorescence analysis DLD1 cells were seeded (1×10^4/well) in a 96-well plate 1 day before experiments. The DLD1 cells were sequentially treated with 100 μL of the following agents at 37° C.: (A) 25 μM each DEVD conjugate for 2 h; (B) 25 μM each DEVD conjugate for 2 h followed by TRAIL (150 ng/L) for 2 h; (C) 25 μM each DEVD conjugate for 2 h, drug-free culture medium for 2 h, and TRAIL (150 ng/L) for 2 h; and (D) 25 μM each DEVD conjugate for 2 h, drug-free culture medium for 24 h, and TRAIL (150 ng/L) for 2 h. The cells were washed with PBS twice before each medium replacement. After treatment, the cells were lysed with 100 μL of lysis buffer (Sigma) for […] at room temperature. The fluorescence intensity of cleaved R110 was measured using a TECAN microplate reader (San Jose, Calif.). The measurement parameters were as follows: excitation wavelength, 485 nm; emission wavelength, 520 nm; excitation and emission bandwidth, both 12.0 nm; gain, 50; number of flashes, 10; and integration time, 30 μs. The measurements were performed 4 times each.
# Uptake and release kinetics of DEVD peptides in normal and apoptotic cells. DLD-1 cells were seeded (1×10^4/well) in 96 well plate 1 days before experiment. […] The fluorescent intensity of cleaved R110 was measured using TECAN microplate reader (San Jose, Calif.). […]
# [3] = Stability of 99mTc-chelate 4, ligand challenge with cysteine and histidine; type: physicochemical; details: 0.01 M cysteine or histidine in PBS, 37° C., 1 and 5 h
# Experimental: A large excess of competing donors cysteine and histidine was used as a means of evaluating the complex's tendency to undergo transchelation. […] The samples were incubated at 37° C. and analyzed by HPLC at 1- and 5-h intervals.
# DLD1 cells [4] = test: Cellular uptake and efflux of 99mTc-chelate 4, radiotracer analysis; type: cell-based, human; details: for Efflux / retention in DLD1 cells after wash: 2 h loading, fresh medium 60-180 min
# Experimental: The medium was replaced with 2 mL of medium containing radiotracers 99 mTc-chelate 4 [Ac-DEVD-R110-D-SAAC-99mTc(CO)3] (˜40 μCi/mL) or its fragment R110-D-SAAC-99 mTc(CO)3 (˜40 μCi/mL). The cells were subsequently incubated for 60 and 120 min before the monolayers were scraped, transferred into 5-mL tubes. The tubes were briefly vortexed and 100 μL DLD1 cell suspension were transferred into a microcentrifuge tube containing 500 μL of a 75:25 mixture of silicon oil (density 1.05, Aldrich) and mineral oil (density 0.872, Acros). The mixture was centrifuged at 14,000 rpm for 5 min. After freezing the tubes with liquid nitrogen, the bottom tips containing the cell pellet were cut off. The cell pellets and the supernatants were counted with a γ-counter (Perkin-Elmer). The protein content in 100 μl cell suspension was quantified in a separate experiment using the Bio-Rad protein assay kit according to the manufacturer's protocol. For efflux study, cells were incubated with each radiotracer for 2 hrs, then the medium was removed and the cells washed with medium twice. The cells were incubated with 2 mL of fresh medium for additional 60 min, 120 min, and 180 min. The radioactivity in the cell pellets and media were counted as described before. Activity ratios of the cell pellet to medium ([cpm/g protein in pellet]/[cpm/g medium]) were calculated and plotted against time. The experiments were performed in pentaplicate.
# apoptotic liver = test: Gamma imaging in murine liver apoptosis model (anti-Fas); type: in vivo, mouse; details: 300 μCi i.v., imaging 120 min after injection
# Excerpt: We used a murine liver apoptosis model to evaluate whether chelate 4 could be used to image apoptosis in vivo. F. G. Blankenberg, J. F. Tait, R. E. Davis, L. Naumovski, K. Ohtsuki, S. Kopiwoda, M. J. Abrams, M. Darkes, R. C. Robbins, H. T. Maecker, H. W. Strauss, Proc. Natl. Acad. Sciences USA 1998, 95, 6349-6354; F. G. Blankenberg, P. D. Katsikis, J. F. Tait, R. E. Davis, L. Naumovski, K. Ohtsuki, S. Kopiwoda, M. J. Abrams, H. W. Strauss, J. Nucl. Med. 1999, 40, 184-191. Male Balb/c mice (10-12 weeks old, weight 20-25 g) were injected intravenously with an anti-Fas monoclonal antibody (10 μg/mouse) to induce apoptosis in the liver. […] Radionuclide imaging was acquired 120 min after the injection of 4.
# Gamma Imaging and Biodistribution For γ-imaging study, two male Balb/c mice (10-12 weeks old, weight 20-25 g) (Charles River, Wilmington, Mass.) were injected intravenously with a purified anti-Fas monoclonal antibody (10 μg/mouse) (Pharmingen, San Diego, Calif.). Two mice injected with PBS were used as a control group. […] The organs of interest were excised and weighed, and radioactivity was counted in a gamma counter. The stomach and intestines were emptied of food contents prior to radioactivity measurements. The percentage of injected dose per gram (% ID/g) was calculated by dividing the % ID/organ by the weight of the tissue.
# [5] = system: activated caspase 3 in liver; test: Fluorescence microscopic analysis of liver from mice injected 99mTc-chelate 4; type: in vivo, mouse; details: anti-Fas-treated vs PBS-treated liver, 2 h after i.v. injection
# Experimental: The tissue slices were fixed using 4% paraformaldehyde for 15 min at room temperature. After PBS washing, the samples were blocked with 10% goat serum at 37° C. for 30 min, followed by 1 μg/mL of rabbit anti-mouse-activated caspase 3 monoclonal antibody (R&D Systems, Minneapolis, Minn.) at 4° C. overnight. Texas red-conjugated goat anti-rabbit IgG (1:1000, Invitrogen, Eugene, Oreg.) was used as second antibody at room temperature for 1 h. Cell nuclei were counterstained with 3 μg/mL of Hoechst 33342 at room temperature for 5 min. The slices were mounted and visualized under a Zeiss Axio Observer.Z1 fluorescence microscope (Carl Zeiss MicroImaging GmbH, Göttingen, Germany).
# liver = test: Radio-HPLC analysis of liver extracts from mice injected 99mTc-chelate 4; details: mouse, in vivo
# Experimental: Two hours after intravenous injection of 4 (1 mCi, 80 μg, 0.2 mL) into a mouse treated with […] and a mouse treated with PBS 2 h prior to the injection of the radiotracer, mice were killed and livers were removed and ground at 4° C. using a Dounce homogenizer (Polytron, […], Switzerland) in 5 mL of acetonitrile/methanol (3:1, v/v). After sequential high-speed centrifugation (100,000 g for 20 min) to remove cellular debris and insoluble proteins, the supernatants were concentrated and injected into the radio-HPLC system (condition: solvent A, 0.01 M NH4OAc in water; solvent B, acetonitrile; gradient: 0-80% B in A over 40 min, flow rate 1.0 mL/min, C18 4.6×250 mm, 5-μm column).
# DLD1 cells [6] = test: Fluorescence microscopy of viable and TRAIL-treated apoptotic DLD1 cells; type: cell-based, human; details: for Effect on apoptosis of DLD1 cells (annexin V staining): annexin V-Alexa Fluor 594 staining
# Experimental: Fluorescence Microscopy Human epithelial cells from colorectal adenocarcinoma (DLD1) were seeded (1×10^4/well) in a 96-well plate 1 day before experiments. Apoptosis was induced by treating cells with TRAIL (100 μL, 250 ng/mL) for 2 h at 37° C. Both apoptotic and viable cells were incubated with 100 μL of 2 or 3 in (final concentration, 50 μM) for 2 h at 37° C. The cells were washed and stained with Annexin V-Alexa Fluor 594. After washing with PBS, the cells were transferred into Lab-Tek II chambered cover glass and visualized under Olympus Fluoview FV1000 confocal laser scanning microscope (FV1-ASW, Olympus, Melville, N.Y.) equipped with fluorescein isothiocyanate (wavelength: 495/519 nm) and Texas red filters (wavelength: 589/615 nm). In separate wells, TRAIL was added in the presence of 50 μM of Ac-DEVD-CHO to inhibit caspase 3 activity.
# Fluorescence microscopy Human epithelial cells from colorectal adenocarcinoma (DLD1) were obtained from American Type Cell Culture (Manassas, Va.). Cells were seeded (1×10^4/well) in a 96-well plate (Corning, Lowell, Mass.) supplemented with RPMI-1640 medium plus 10% fetal bovine serum (FBS) 1 day before experiments. Apoptosis was induced by treating cells with TRAIL (100 μL, 250 ng/mL) for 2 h at 37° C. The treated apoptotic cells were collected in conical tubes, while the untreated viable cells were trypsinized. The cells were centrifuged at 3000 rpm for 5 mM. The pellets were washed with RPMI 1640 without phenol red. Both apoptotic and viable cells were incubated with 100 μL, of 2 or 3 in RPMI 1640 without phenol red (final concentration, 50 μM) for 2 h at 37° C. The cells were washed and resuspended in annexin-binding buffer (10 mM HEPES, 140 mM NaCl, and 2.5 mM CaCl2 [pH 7.4]). Five microliters of Alexa Fluor 594-annexin V conjugate was added into each 100 μl of cell suspension, and the cells were incubated for 15 min at room temperature. […]
molecule,measurement,setting,value
Ac-DEVD-R110-D-SAAC-Fmoc [Compound 2],Fluorescence change after introduction of caspase 3,"Human caspase 3; 22 μM, over 60 min, λex 496 nm",large increase in fluorescence
same,Fluorescence emission without exposure to caspase 3,"Human caspase 3; 22 μM, λex 496 nm, room temperature",near-baseline emission
same,Site of hydrolytic cleavage by caspase 3 (LC-MS),Human caspase 3; 1 h at room temperature,occurred selectively at the amide bond between DEVD and R110
same,Degradation on incubation with caspase 3,Human caspase 3; fluorescence increase and LC-MS,completely degraded
same,Stability in PBS and culture medium with 10% FBS (generation of fluorescence),[1],stable in both PBS and culture medium supplemented with serum; also recorded: remarkable stability in both PBS and culture medium supplemented with serum
same,Uptake in viable tumor cells: reversibility (efflux in drug-free medium 2 or 24 h),"DLD1 cells [2]; 25 μM 2 h, then drug-free medium, then TRAIL",reversible process
same,Increase of fluorescence intensity upon TRAIL treatment,DLD1 cells [2]; 25 μM 2 h followed by TRAIL (150 ng/mL) 2 h vs no TRAIL,27 fold
Ac-DEVD-R110-D-SAAC-^99mTc(CO)3 [^99mTc-chelate 4],Transchelation under cysteine/histidine challenge,[3],No transchelation was observed
same,Uptake in DLD1 cells (cell pellet to medium activity ratio),"DLD1 cells [4]; 1-2 h of incubation, compared with fragment",accumulated significantly more in the cells than its fragment did; also recorded: significantly higher uptake in DLD1 cells
same,Efflux / retention in DLD1 cells after wash,DLD1 cells [4],washed out of the cells over time; also recorded: gradually washed out
same,"Liver uptake, anti-Fas-treated vs PBS-treated mice (radionuclide imaging)",apoptotic liver,Significantly higher uptake
same,Cleavage of fluorogenic probe in liver sections,[5],shown only in the apoptotic liver but not in the normal liver
R110-D-SAAC-^99mTc(CO)3,Permeability to plasma membrane compared with parent substrate,DLD1 cells [4],less permeable to plasma membrane
same,Efflux / retention in DLD1 cells after wash,DLD1 cells [4],trapped in the cells
same,Retention of degradation product in liver,liver,retained in the apoptotic liver in its intact form
"CC(=O)Oc1ccc2c(c1)Oc1cc(OC(C)=O)ccc1C21OC(=O)c2ccccc21 [fluorescein diacetate, reference compound]",Stability in PBS and culture medium with 10% FBS (generation of fluorescence),[1],relatively rapid hydrolysis in both solutions
Ac-DEVD-CHO,Effect of caspase 3 inhibitor on fluorescent signal from 3,DLD1 cells [6]; 50 μM Ac-DEVD-CHO with TRAIL,significantly reduced the fluorescent signal from 3
same,Effect on apoptosis of DLD1 cells (annexin V staining),DLD1 cells [6],did not inhibit the apoptosis of DLD1 cells
B1,Effect on apoptosis of DLD1 cells (annexin V staining),DLD1 cells [6],induced significant apoptosis
